From patent US5443967A, “DNA encoding the cancer associated SCM recognition factor” (priority 1993, dated 1995)

Columns and labels:
[1] = test system: SCM-responding lymphocytes; experiment: SCM-response modifying effect of α-1-PI (SCM test after preincubation and washing); type: cell-based, human; settings: 2.5 hr α-1-PI + 3X Wash
Method: SCM-responding lymphocytes were isolated from blood samples of a patient with malignant melanoma and from a normal, healthy donor. Half of the lymphocyte suspension from each sample was incubated with 30 nanomoles of α-1-PI per 6×10^6 cells for 2.5 hours at 37° C.; the other half was retained as an untreated control. The cells were then washed three times with PBS. Aliquots from both the untreated controls and the α-1-PI-treated samples were challenged for 40 min with phytohemagglutinin (PHA) or SCM factor. […] The RRSCM was 1.74 in the absence of incubation and 1.68 after incubation.

elastase = experiment: Casein-resorufin protease assay: inhibition of elastase by α-1-PI; type: biochemical; settings: 3.2 μg Elastase + 6.6 μg α-1-PI
Method: (§1) A protease activity using casein-resorufin as a protease substrate was performed to determine the effect of SCM factor on inhibition of the serine proteases trypsin, elastase, and cathepsin G by the serine protease inhibitor α-1-PI. The protocol provided by the manufacturer, Boehringer-Mannheim Biochemica, was followed to assay protease activity. […] However, when SCM factor was added before α-1-PI or simultaneously in a mixture with α-1-PI, it prevented the inhibition of trypsin by α-1-PI. The degree of this effect depended on the quantity of SCM factor added. […] The active portion of the molecule that prevents inhibition of the proteolytic enzymes by α- 1-PI resides within the first seven amino-terminal amino acid residues of the SCM factor. This portion of the molecule is designated "fraction 6" or F6. The effectiveness of equimolar amounts of the peptide F6, as compared to the entire SCM factor molecule (Table 20) in preventing the inhibition of elastase by α-1-PI is shown in Table 22.

cathepsin G = molecular target: T1, cathepsin G (Homo sapiens, UniProt P08311); experiment: Casein-resorufin protease assay: inhibition of cathepsin G by α-1-PI; type: biochemical; settings: 1 μg Cathepsin G + 6.6 μg α-1-PI; 300 μL
T1 sequence (P08311 21-244 limits assumed): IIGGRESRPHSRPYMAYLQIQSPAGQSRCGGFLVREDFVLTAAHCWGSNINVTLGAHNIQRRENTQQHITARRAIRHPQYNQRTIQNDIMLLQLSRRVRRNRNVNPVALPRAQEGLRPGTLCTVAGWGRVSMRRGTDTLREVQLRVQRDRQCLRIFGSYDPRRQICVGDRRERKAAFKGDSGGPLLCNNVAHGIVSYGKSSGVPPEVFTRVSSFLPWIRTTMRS
Method: as §1

trypsin = experiment: Casein-resorufin protease assay: inhibition of trypsin by α-1-PI; type: biochemical; settings: 3 μg Trypsin + 6.6 μg α-1-PI; 300 μL
Method: as §1

With “α-1-PI: glycoprotein serine protease inhibitor, 55,000 daltons, single chain of 394 residues” the RRSCM ([1]; lymphocyte donor Healthy) was 1.68, the RRSCM ([1]; lymphocyte donor Malignant Melanoma) was 1.8 and the “Trypsin Activity in Casein-Resorufin Assay as % of Untreated Control Enzyme” value (elastase; 300 μL (Table 20)) was 3.5%. The “Elastase Activity in Casein-Resorufin Assay as % of Untreated Control Enzyme” value (elastase; 300 μL (Table 22)) was 3.4%, the “Cathepsin G Activity in Casein-Resorufin Assay as % of Untreated Control Enzyme” value (cathepsin G) was 20.0% and the “Trypsin Activity in Casein-Resorufin Assay as % of Untreated Control Enzyme” value (trypsin) was 13.6%.
